Measured values taken from PMC9730820, “Near-infrared-dye labeled tumor vascular-targeted dimer GEBP11 peptide for image-guided surgery in gastric cancer” (Frontiers in Oncology, 2022).
Where a SMILES comes first, the peptide text is derived from it. Bridges are numbered along the chain shown (N, C = ends). [ ]: non-standard residue; d: D form. The star is where a group is joined. X1 = CC[N+]1=C(C=CC=CC=C2N(CCCCCC(=O)*)c3ccc4c(S(=O)(=O)O)cc(S(=O)(=O)O)cc4c3C2(C)C)C(C)(C)c2c1ccc1c(S(=O)(=O)O)cc(S(=O)(=O)[O-])cc21; Ahx = NCCCCCC(=O)O

Assays:
[1] = tested on: SGC7901 subcutaneous xenograft; experiment: Live NIR fluorescence imaging in subcutaneous gastric cancer xenograft model; type: in vivo, athymic nude mice
From the text: All mice were fed irradiated alfalfa-free rodent diet (Envigo Teklad, Madison, WI) to reduce background in stomach and gut for one week prior to the imaging experiments. The mice models were used for in vivo imaging and surgical procedures when xenograft diameter reached 5 to 10 mm.

[2] = tested on: SGC7901-Luc orthotopic gastric cancer xenograft; experiment: Live NIR fluorescence imaging in orthotopic gastric cancer xenograft model
Description: All animal experiments were conducted in compliance with protocols approved by the Institute of Animal Use Committee of Air Force Medical University. All gastric cancer xenograft models were established in 6–8 week old female athymic nude mice. The SGC7901-Luc or SGC7901-GFP cell suspension at a concentration of 2 × 10^6 cells/mL was prepared. For subcutaneous xenograft model, SGC7901-GFP cells suspension (100μL/mouse) were injected subcutaneously into the right upper limb (for in vivo binding affinity test) or lower flank of mouse (for in vivo biodistribution assay). The orthotopic gastric cancer xenograft models were established as described previously ([21]), In brief, open abdominal surgery was performed on the mice under general anesthesia, SGC7901-Luc cells suspension (100μL/mouse) were injected into the subserosa layer of the stomach.
Tumor growth was monitored by Caliper IVIS Lumina II (PerkinElmer, MA, USA). GFP fluorescence imaging was performed in subcutaneous xenograft model. Bioluminescence imaging (BLI) was performed to monitor tumor growth in the orthotopic xenograft models. Because of its higher penetrability and sensitivity, peritoneal metastasis can be visualized clearly as well. Before BLI was acquired, mice were injected with D-luciferin (150 mg/kg) by intraperitoneal injection and anesthetized with 2% isoflurane. Living Image software 4.7.3 (IVIS) was used to quantify bioluminescence signals.
Xenograft mice were injected with 200 ul GEBP11-Cy5.5, (GEBP11)2-ACP-Cy5.5 or free Cy5.5 (5 µM in PBS) via tail veins. Live NIR fluorescence imaging was performed at different time points. NIR Fluorescence intensity was quantified by region-of-interest (ROI) measurement using Living Image software 4.7.3 (IVIS).

[3] = tested on: tumor vascular epithelial cells (CD31); experiment: Fluorescence microscopy co-localisation of probe with CD31 in resected tumor sections; settings: frozen sections of resected samples, FITC-labeled anti-mouse CD31, confocal fluorescence microscopic examination
Description: Resected samples were embedded in optimum cutting temperature (OCT) compound (Leica, Germany), and 10μm-thick frozen tissue sections were cut on a cryostat microtome (Leica, Germany). The sections were fixed immediately with precooled isoacetone for 30min and stored at –20 °C. Hematoxylin and Eosin (H&E) staining was used for histological analysis. Tumor margins defined by H&E staining and NIR fluorescence were compared. All slides were scanned by using Pannoramic-250 Flash II slide-scanner (3D-Histech, Budapest, Hungary) and analyzed by Case viewer software (3D-Histech, Budapest, Hungary). Mouse tumor vascular endothelial cells were stained by FITC-labeled rat anti-mouse CD31 (89C2) antibody (CST, Boston, USA). Fluorescence microscopy was used to validate the colocalization of (GEBP11)2-ACP-Cy5.5 probe and tumor microvessel. Fluorescence microscopic images were acquired at 100x magnification by using Echo Revolve upside-down integrated fluorescence microscope (ECHO, USA).

[4] = tested on: HUVECs; experiment: In vitro binding of Cy5.5 labeled GEBP11 probes, confocal fluorescence; type: cell-based, human; settings: 1μM probe, 6h, 37°C, laser scanning confocal microscope
Description: (§1) SGC7901 cells and HUVECs were cocultured as previously described ([18]). Co- HUVECs (co-cultured HUVECs), HUVECs and SGC7901 cells were harvested at log-growth phase and characterized by bench top fluorescent microscopy. Cells were incubated with 1μM GEBP11-Cy5.5 or (GEBP11)2-ACP-Cy5.5 for 6h at 37°C in a humidified atmosphere with 5% CO2. Binding affinity of the probes to cultured cells were detected by laser scanning confocal microscope (FV3000, Olympus, Japan). Nucleus were re-stained with ProLong™ Gold Antifade Mountant with DAPI (Invitrogen, USA) at room temperature. For binding specificity assessment, cells were pretreated with 25μM unlabeled GEBP11 for 30min at 37°C before incubating with the labeled probes.

[5] = tested on: SGC7901 cells; experiment: as above; type: cell-based, human; settings: 1μM probe, 6h, 37°C, laser scanning confocal microscope
Description: as §1

[6] = tested on: Co-HUVECs (HUVECs co-cultured with SGC7901 cells); experiment: In vitro binding of Cy5.5 labeled GEBP11 probes, confocal fluorescence, with competitive inhibition by unlabeled GEBP11; type: cell-based, human; settings: 1μM probe, 6h, 37°C
Description: as §1

[7] = tested on: SGC7901 subcutaneous xenograft; experiment: Ex vivo biodistribution of NIR signal in tumor and main organs; design: species or system athymic nude mice; settings: tumors and major organs harvested at 24h after injection
Description: (§2) Subcutaneous tumor xenograft models were used to detect the biodistribution of NIR signals. Mice were euthanized at 24h after injection of the labeled probes or free Cy5.5. All assays were done in triplicates. Then tumor xenografts and main organs (heart, lung, kidney, bone, muscle, brain, spleen, liver, skin and intestines) were harvested. Living Image version 4.7.3 Software (IVIS) was used to quantify the NIR fluorescence intensity at selected ROIs. All ROI data were collected after subtracting background autofluorescence. Differences in the fluorescence intensities of the ROIs between different probes were statistically analyzed.

[8] = as above; design: species or system athymic nude mice; settings: mouse, in vivo, iv, 200 ul of 5 uM probe in PBS per mouse; ex vivo NIR signal, kidney relative to muscle, 24 h post-injection, n=3, bar label of Figure 3C
Description: as §2

[9] = tested on: SGC7901-Luc orthotopic gastric cancer xenograft; experiment: Real-time NIR fluorescence imaging-guided resection; type: in vivo, athymic nude mice; settings: surgery 24h after probe injection, checked by BLI
Description: Orthotopic gastric cancer xenograft mice were anesthetized with a ketamine/xylazine mixture via intraperitoneal injection 24h after injection of (GEBP11)2-ACP-Cy5.5 probe. Real-time NIR fluorescence imaging was used to guide the removal of the primary cancer lesion and potential metastatic lesions. After resection, all surgical specimens and surgical beds were examined by NIR fluorescence imaging to confirm complete resection. To compare the efficacy of the dimer GEBP11 NIR imaging, BLI imaging pictures were taken before and after resection, the findings of BLI imaging were kept blind to the researcher who performed the surgery.

| Compound | Time at which NIR fluorescence signal at the tumor site peaked ([1]; 200 ul of 5 µM probe in PBS via tail vein, observed 0-96 h, IVIS ROI) [h] | Time at which signal intensity at the tumor site peaked ([2]; 200 ul of 5 µM probe via tail vein, IVIS ROI) [h] | NIR fluorescence signal at the tumor sites at 6h compared with GEBP11-Cy5.5 or free Cy5.5 ([2]; 6h after injection) | Co-localisation of probe fluorescence with CD31 [3] | Fluorescence signal on HUVECs after incubation with probe [4] | Fluorescence signal on SGC7901 after incubation with probe [5] | Signal intensity compared with the mono probe ([6]; confocal microscope) | Fluorescence signal on Co-HUVECs after incubation with probe ([6]; laser scanning confocal microscope) | Distribution of the NIR probe in tumor and organs, ex vivo fluorescence imaging [7] | tissue to tissue ratio at 24 h [8] | Residual cancer lesion after NIR-guided resection [9] | NIR signal at the tumor sites and site of accumulation, live imaging ([1]; 200 ul of 5 µM in PBS via tail vein) | Course of signal intensity at the tumor site ([2]; 200 ul of 5 µM via tail vein) |
| --- | --- | --- | --- | --- | --- | --- | --- | --- | --- | --- | --- | --- | --- |
| CC[N+]1=C(C=CC=CC=C2N(CCCCCC(=O)N[C@H]3CSSC[C@@H](C(=O)NCCCCCC(=O)N[C@H]4CSSC[C@@H](C(=O)O)NC(=O)[C@H](CCSC)NC(=O)[C@H](CC(C)C)NC(=O)[C@H](Cc5ccc(O)cc5)NC(=O)[C@H](CO)NC(=O)[C@H](CC(N)=O)NC(=O)[C@H](CCCCN)NC(=O)[C@H]([C@@H](C)O)NC4=O)NC(=O)[C@H](CCSC)NC(=O)[C@H](CC(C)C)NC(=O)[C@H](Cc4ccc(O)cc4)NC(=O)[C@H](CO)NC(=O)[C@H](CC(N)=O)NC(=O)[C@H](CCCCN)NC(=O)[C@H]([C@@H](C)O)NC3=O)c3ccc4c(S(=O)(=O)O)cc(S(=O)(=O)O)cc4c3C2(C)C)C(C)(C)c2c1ccc1c(S(=O)(=O)O)cc(S(=O)(=O)[O-])cc21 [(GEBP11)2-ACP-Cy5.5] (X1-CTKNSYLMC[Ahx]CTKNSYLMC-OH; disulfide 1-9, 11-19; N-terminus and C-terminus assumed) | 24 | 24 | stronger NIR fluorescence signal | co-localize with CD31 | only scarce signal | only scarce signal | much higher signal intensity than GEBP11-Cy5.5 | strong fluorescence signal | Significant enrichment | 1.41 | No residual cancer lesion could be detected | – | – |
| CCN1\C(=C/C=C/C=C/C2=[N+](CCCCCC(=O)O)c3ccc4c(S(=O)(=O)O)cc(S(=O)(=O)O)cc4c3C2(C)C)C(C)(C)c2c1ccc1c(S(=O)(=O)[O-])cc(S(=O)(=O)O)cc21 [Free Cy5.5, Cy5.5, reference compound] | – | – | – | – | – | – | – | – | found in the kidney, without enrichment in the tumor | – | – | accumulated mainly in the kidneys, and no significant signal was detected at the tumor sites | dropped rapidly after 6h |
